Results from patent publication US12084420B2, “Indoline compounds for inhibiting KIF18A” (Volastra Therapeutics, Inc., priority 2021, dated 2024).

The compounds below were run against hKIF18A (1-374) (Homo sapiens (Human), UniProt Q8NI77) (assay: Inhibition of KIF18A microtubule-dependent ATPase activity (ADP-Glo)). Conditions: KIF18A microtubule-dependent ATPase activity, biochemical assay.
Sequence of hKIF18A (1-374) (Q8NI77 whole entry, looked up): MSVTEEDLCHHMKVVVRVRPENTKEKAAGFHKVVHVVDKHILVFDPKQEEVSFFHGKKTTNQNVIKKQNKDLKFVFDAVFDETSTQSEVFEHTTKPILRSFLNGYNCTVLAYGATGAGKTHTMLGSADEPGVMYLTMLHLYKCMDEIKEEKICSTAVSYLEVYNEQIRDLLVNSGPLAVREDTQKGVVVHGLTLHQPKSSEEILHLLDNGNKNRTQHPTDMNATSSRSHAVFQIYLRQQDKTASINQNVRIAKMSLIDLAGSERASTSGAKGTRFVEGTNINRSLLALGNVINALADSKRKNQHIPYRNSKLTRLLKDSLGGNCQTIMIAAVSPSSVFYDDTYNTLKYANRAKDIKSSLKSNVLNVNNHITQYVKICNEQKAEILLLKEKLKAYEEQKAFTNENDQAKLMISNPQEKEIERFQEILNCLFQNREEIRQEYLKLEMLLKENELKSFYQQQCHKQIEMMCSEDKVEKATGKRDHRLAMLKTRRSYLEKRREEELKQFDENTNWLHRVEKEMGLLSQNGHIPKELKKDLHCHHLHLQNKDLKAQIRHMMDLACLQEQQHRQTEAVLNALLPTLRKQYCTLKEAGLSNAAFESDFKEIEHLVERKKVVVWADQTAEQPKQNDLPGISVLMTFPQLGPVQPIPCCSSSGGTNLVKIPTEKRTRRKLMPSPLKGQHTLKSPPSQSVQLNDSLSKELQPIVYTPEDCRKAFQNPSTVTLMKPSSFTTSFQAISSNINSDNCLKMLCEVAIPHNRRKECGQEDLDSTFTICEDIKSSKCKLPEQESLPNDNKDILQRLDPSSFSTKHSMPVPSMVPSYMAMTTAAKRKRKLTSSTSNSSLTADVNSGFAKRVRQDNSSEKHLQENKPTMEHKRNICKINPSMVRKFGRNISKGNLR
Sequence of hKIF18A (1-374) (Q2XVP4 whole entry partner, looked up): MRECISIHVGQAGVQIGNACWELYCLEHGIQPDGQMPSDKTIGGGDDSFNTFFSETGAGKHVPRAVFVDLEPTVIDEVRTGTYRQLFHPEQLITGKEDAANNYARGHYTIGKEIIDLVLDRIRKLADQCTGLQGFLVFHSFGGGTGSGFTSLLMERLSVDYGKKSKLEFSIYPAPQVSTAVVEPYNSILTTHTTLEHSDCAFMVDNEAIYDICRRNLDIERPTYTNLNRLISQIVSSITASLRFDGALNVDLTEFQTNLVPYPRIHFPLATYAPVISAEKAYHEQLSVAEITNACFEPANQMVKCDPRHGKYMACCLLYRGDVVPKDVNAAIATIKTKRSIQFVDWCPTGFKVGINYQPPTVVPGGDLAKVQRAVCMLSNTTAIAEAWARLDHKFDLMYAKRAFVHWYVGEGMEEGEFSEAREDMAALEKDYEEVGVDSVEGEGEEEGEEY
Sequence of hKIF18A (1-374) (P02554 whole entry partner, looked up): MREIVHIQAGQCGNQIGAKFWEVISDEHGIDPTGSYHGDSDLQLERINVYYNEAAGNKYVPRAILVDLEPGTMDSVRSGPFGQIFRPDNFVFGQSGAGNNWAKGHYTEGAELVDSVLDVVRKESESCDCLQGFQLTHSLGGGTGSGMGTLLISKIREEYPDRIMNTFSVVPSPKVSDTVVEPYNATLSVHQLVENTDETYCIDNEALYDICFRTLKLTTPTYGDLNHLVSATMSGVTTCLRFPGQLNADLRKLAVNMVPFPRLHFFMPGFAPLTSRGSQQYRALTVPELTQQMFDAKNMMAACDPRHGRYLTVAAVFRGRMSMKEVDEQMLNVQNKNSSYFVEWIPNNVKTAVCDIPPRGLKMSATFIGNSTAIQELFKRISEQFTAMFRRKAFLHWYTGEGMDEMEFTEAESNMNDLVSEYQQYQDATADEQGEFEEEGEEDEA

SMILES | IC50 [nM]
CC1=CCC2(CC1)CN(C(=O)c1cccc(S(=O)(=O)NC(C)(C)C)c1)c1ccc(NS(C)(=O)=O)cc12 (stereo not drawn) [Compound 295, N-(tert-butyl)-3-(4-methyl-5′-(methylsulfonamido)spiro[cyclohexane-1,3′-indolin]-3-en-1′-carbonyl)benzenesulfonamide] | 38
CS(=O)(=O)Nc1ccc2c(c1)C1(CCCCC1)CN2C(=O)c1cccc(S(=O)(=O)N2CC3CC3C2)c1 (stereo not drawn) [Compound 25, N-(1′-(3-((3-azabicyclo[3.1.0]hexan-3-yl)sulfonyl)benzoyl)spiro[cyclohexane-1,3′-indolin]-5′-yl)methanesulfonamide] | 120
CS(=O)(=O)Nc1ccc2c(c1)[C@]1(CC[C@@H](C(F)F)CC1)CN2C(=O)c1cccc(S(=O)(=O)NC23CC(C2)C3)c1 [Compound 336a] | 8.5
CS(=O)(=O)c1ccc2c(c1)C1(CCCCC1)CN2C(=O)c1cccc(S(=O)(=O)N2CCCCC2)c1 [Compound 250, (5′-(methylsulfonyl)spiro[cyclohexane-1,3′-indolin]-1′-yl)(3-(piperidin-1-ylsulfonyl)phenyl)methanone] | 670
CC(C)(C)[C@@H](O)c1ccc(C(=O)N2CC3(CCC4(CC4)CC3)c3cc(NS(=O)(=O)CCO)ccc32)o1 (single isomer, unassigned) [Compound 371a] | 30
CC1(NS(=O)(=O)c2cccc(C(=O)N3CC4(CCC5(CC5)CC4)c4cc(NS(C)(=O)=O)ccc43)c2)CSC1 [Compound 226, 3-(5″- (methylsulfonamido)dispiro[cyclopropane-1,1′-cyclohexane-4′,3″-indoline]-1″-carbonyl)-N-(3-methylthietan-3-yl)benzenesulfonamide] | 13
CS(=O)(=O)Nc1ccc2c(c1)C1(CCC3(CC3)CC1)CN2C(=O)c1cccc(S(=O)(=O)NC2(C#N)CC2)c1 [Compound 264, N-(1-cyanocyclopropyl)-3-(5″- (methylsulfonamido)dispiro[cyclopropane-1,1′-cyclohexane-4′,3″-indoline]-1″-carbonyl)benzenesulfonamide] | 35
CCS(=O)(=O)Nc1ccc2c(c1)C1(CCC3(CC3)CC1)CN2C(=O)c1ccc([C@H](O)C(C)(C)C)o1 (single isomer, unassigned) [Compound 372a] | 37
CS(=O)(=O)Nc1ccc2c(c1)C1(CCC3(CC3)CC1)CN2C(=O)c1ccc(O)c(S(=O)(=O)N2CC(F)(F)C2)c1 [Compound 303, N-(1″-(3-((3,3-difluoroazetidin-1-yl)sulfonyl)-4-hydroxybenzoyl)dispiro[cyclopropane-1,1′-cyclohexane-4′,3″-indolin]-5″-yl)methanesulfonamide] | 8.2
O=C(c1ccc(C(O)C2CCCC2)o1)N1CC2(CCC3(CC3)CC2)c2cc(NS(=O)(=O)CCO)ccc21 (single isomer, unassigned) [Compound 368b] | 3.5
Cc1oc(C(=O)N2CC3(CCCCC3)c3cc(NS(C)(=O)=O)ccc32)cc1S(=O)(=O)NC(C)(C)C [Compound 57, N-(tert-butyl)-2-methyl-5-(5′-(methylsulfonamido)spiro[cyclohexane-1,3′-indoline]-1′-carbonyl)furan-3-sulfonamide] | 1100
CC(c1cccc(C(=O)N2CC3(CCC4(CC4)CC3)c3cc(NS(C)(=O)=O)ccc32)c1)N1CCC(F)(F)CC1 (stereo not drawn) [Compound 341, N-(1″-(3-(1-(4,4-difluoropiperidin-1-yl)ethyl)benzoyl)dispiro[cyclopropane-1,1′-cyclohexane-4′,3″-indolin]-5″-yl)methanesulfonamide] | 25
CS(=O)(=O)Nc1ccc2c(c1)C1(CCCCC1)CN2C(=O)c1csc(S(=O)(=O)NC2CCC2)c1 [Compound 284, N-cyclobutyl-4-(5′-(methylsulfonamido)spiro[cyclohexane-1,3′-indoline]-1′-carbonyl)thiophene-2-sulfonamide] | 26
CCS(=O)(=O)Nc1ccc2c(c1)C1(CCC3(CC3)CC1)CN2C(=O)c1ccc(C(O)C2CCCC2)o1 (single isomer, unassigned) [Compound 367b] | 4.8
CS(=O)(=O)Nc1ccc2c(c1)C1(CCCCC1)CN2C(=O)c1cccc(S(=N)(=O)C2CCCC2)c1 (stereo not drawn) [Compound 49, N-(1′-(3-(cyclopentanesulfonamidoyl)benzoyl)spiro[cyclohexane-1,3′-indolin]-5′-yl)methanesulfonamide] | 130
CC1(C(O)c2cccc(C(=O)N3CC4(CCC5(CC5)CC4)c4cc(NS(C)(=O)=O)ccc43)c2)CCC1 (stereo not drawn) [Compound 354, N-(1″-(3-(hydroxy(1-methylcyclobutyl)methyl)benzoyl)dispiro[cyclopropane-1,1′-cyclohexane-4′,3″-indolin]-5″- yl)methanesulfonamide] | 14
CC(C)N(C)S(=O)(=O)c1cccc(C(=O)N2CC3(CCCCC3)c3cc(NS(C)(=O)=O)ccc32)c1 [Compound 55, N-isopropyl-N-methyl-3-(5′-(methylsulfonamido)spiro[cyclohexane-1,3′-indoline]-1′-carbonyl)benzenesulfonamide] | 140
CC(NS(=O)(=O)c1cccc(C(=O)N2CC3(CCC4(CC4)CC3)c3cc(NS(C)(=O)=O)ccc32)c1)C1CC1 (stereo not drawn) [Compound 186, N-(1-cyclopropylethyl)-3-(5″- (methylsulfonamido)dispiro[cyclopropane-1,1′-cyclohexane-4′,3″-indoline]-1″-carbonyl)benzenesulfonamide] | 12

Further compounds by falling IC50, results first:

IC50 [nM] | SMILES
1000 | CC(C)(C)NS(=O)(=O)c1cccc(C(=O)N2CC3(CCC4(CC4)CC3)c3cc(Br)ccc32)c1 [Compound 9, 3-(5″-bromodispiro[cyclopropane-1,1′-cyclohexane-4′,3″-indoline]-1″- carbonyl)-N-(tert-butyl)benzenesulfonamide]
280 | CS(=O)(=O)Nc1ccc2c(c1)C1(CCC3(CC3)CC1)CN2C(=O)c1cccc(NC2CCCC2)c1 [Compound 347, N-(1″-(3-(cyclopentylamino)benzoyl)dispiro [cyclopropane-1,1′-cyclohexane-4′,3″- indolin]-5″-yl)methanesulfonamide]
180 | CS(=O)(=O)Nc1ccc2c(c1)C1(CCCCC1)CN2C(=O)c1cccc(S(=O)(=O)N2CCCC2)c1 [Compound 241, N-(1′-(3-(pyrrolidin-1-ylsulfonyl)benzoyl)spiro[cyclohexane-1,3′-indolin]-5′-yl)methanesulfonamide]
130 | CS(=O)(=O)Nc1ccc2c(c1)C1(CCCCC1)CN2C(=O)c1cccc(S(=O)(=O)N2CCC(F)C2)c1 (stereo not drawn) [Compound 83, N-(1′-(3-((3-fluoropyrrolidin-1-yl)sulfonyl)benzoyl)spiro[cyclohexane-1,3′-indoline]-5′-yl)methanesulfonamide]
100 | CC(C)NS(=O)(=O)c1cccc(C(=O)N2CC3(CCCCC3)c3cc(NS(C)(=O)=O)ccc32)c1 [Compound 48, N-isopropyl-3-(5′-(methylsulfonamido)spiro[cyclohexane-1,3′-indoline]-1′-carbonyl)benzenesulfonamide]
72 | COCC(C)NS(=O)(=O)c1cccc(C(=O)N2CC3(CCC4(CC4)CC3)c3cc(NS(C)(=O)=O)ccc32)c1 (stereo not drawn) [Compound 200, N-(1-methoxypropan-2-yl)-3-(5″- (methylsulfonamido)dispiro[cyclopropane-1,1′-cyclohexane-4′,3″-indoline]-1″-carbonyl)benzenesulfonamide]
56 | CS(=O)(=O)Nc1ccc2c(c1)C1(CCC3(CC3)CC1)CN2C(=O)c1cccc(S(=O)(=O)NC2COC2)c1 [Compound 174, 3-(5″- (methylsulfonamido)dispiro[cyclopropane-1,1′-cyclohexane-4′,3″-indoline]-1″-carbonyl)-N-(oxetan-3-yl)benzenesulfonamide]
51 | CN(C1CC(F)(F)C1)S(=O)(=O)c1cccc(C(=O)N2CC3(CCC4(CC4)CC3)c3cc(NS(C)(=O)=O)ccc32)c1 [Compound 356, N-(3,3-difluorocyclobutyl)-N-methyl-3-(5″- (methylsulfonamido)dispiro[cyclopropane-1,1′-cyclohexane-4′,3″-indoline]-1″-carbonyl)benzenesulfonamide]
23 | CC1(NS(=O)(=O)c2cccc(C(=O)N3CC4(CCC5(CC5)CC4)c4cc(NS(C)(=O)=O)ccc43)c2)CC(F)(F)C1 [Compound 224, N-(3,3-difluoro-1-methylcyclobutyl)-3-(5″- (methylsulfonamido)dispiro[cyclopropane-1,1′-cyclohexane-4′,3″-indoline]-1″-carbonyl)benzenesulfonamide]
20 | CS(=O)(=O)Nc1ccc2c(c1)C1(CCC3(CC3)CC1)CN2C(=O)c1cccc(CN2CCC(F)(F)CC2)n1 [Compound 342, N-(1″-(6-((4,4-difluoropiperidin-1-yl)methyl)picolinoyl)dispiro[cyclopropane-1,1′-cyclohexane-4′,3″-indolin]-5″- yl)methanesulfonamide]
18 | CCS(=O)(=O)Nc1ccc2c(c1)C1(CCC3(CC3)CC1)CN2C(=O)c1ccc(F)c(S(=O)(=O)NC(C)(C)C)c1 [Compound 340, N-(tert-butyl)-5-(5″- (ethylsulfonamido)dispiro[cyclopropane-1,1′-cyclohexane-4′,3″-indoline]-1″- carbonyl)-2-fluorobenzenesulfonamide]
15 | CC(C)(C)NS(=O)(=O)c1cccc(C(=O)N2C[C@]3(CC[C@H](C(F)(F)F)CC3)c3cc(NS(C)(=O)=O)ccc32)c1 [Compound 361a]
14 | CC(C)(C)NS(=O)(=O)c1ccc(C(=O)N2CC3(CCC4(CC4)CC3)c3cc(NS(C)(=O)=O)ccc32)o1 [Compound 299, N-(tert-butyl)-5-(5″- (methylsulfonamido)dispiro[cyclopropane-1,1′-cyclohexane-4′,3″-indoline]-1″-carbonyl)furan-2-sulfonamide]
14 | C=C1CN(S(=O)(=O)c2cccc(C(=O)N3CC4(CCC5(CC5)CC4)c4cc(NS(C)(=O)=O)ccc43)c2)C1 [Compound 258]
9.3 | CC1(NS(=O)(=O)c2cccc(C(=O)N3CC4(CCC5(CC5)CC4)c4cc(NS(C)(=O)=O)ccc43)c2)CC1 [Compound 216, N-(1-methylcyclopropyl)-3-(5″- (methylsulfonamido)dispiro[cyclopropane-1,1′-cyclohexane-4′,3″-indoline]-1″-carbonyl)benzenesulfonamide]
